Results from patent US20260297085A1, “1 H-PYRROLO[2,3-B]PYRIDIN-4-YL]-2-OXOPYRROLIDINE-3-CARBONITRILE DERIVATIVES AS TYROSINE KINASE 2 (TYK2) INHIBITORS FOR THE TREATMENT OF INFLAMMATORY DISEASES” (BIOGEN MA INC., priority 2023, published 2026).
Counter-ions that a name gives are not always drawn.

How the values were obtained:
[1] = biological target: T1, human TYK2 kinase domain (JH1) (Homo sapiens, UniProt P29597); assay: JH1 biochemical assay for TYK2 (ADP-Glo kinase assay, recombinant JH1 catalytic domain, JAK3-974 peptide, 10 μM ATP)
T1 construct: recombinantly generated catalytic kinase (also known as JH1) domain of human JAK1, JAK2, JAK3 and TYK2
T1 sequence (P29597 897-1176 limits assumed): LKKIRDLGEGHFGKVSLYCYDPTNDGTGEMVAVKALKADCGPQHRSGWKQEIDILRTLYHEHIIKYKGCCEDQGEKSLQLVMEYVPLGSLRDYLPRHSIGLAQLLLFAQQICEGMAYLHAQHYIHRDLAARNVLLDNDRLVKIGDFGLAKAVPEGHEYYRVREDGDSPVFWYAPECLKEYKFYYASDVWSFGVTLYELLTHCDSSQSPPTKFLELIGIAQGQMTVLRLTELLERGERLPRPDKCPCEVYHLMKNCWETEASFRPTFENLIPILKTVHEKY
Outline: (§1)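 Reactions contain 50 μM peptide and run 100 minutes, with enzyme at 4, 0.2, 0.3 and 2 nM for JAK1, JAK2, JAK3 and TYK2. Generated ADP is read by luminescence; IC50 derives from normalized dose-response curves.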

[2] = biological target: T2, human JAK1 kinase domain (JH1) (Homo sapiens, UniProt P23458); assay: JH1 biochemical assay for JAK1 (ADP-Glo kinase assay, recombinant JH1 catalytic domain, JAK3-342 peptide, 35 μM ATP)
T2 construct: recombinantly generated catalytic kinase (also known as JH1) domain of human JAK1, JAK2, JAK3 and TYK2
Outline: as §1

[3] = biological target: T3, human JAK2 kinase domain (JH1) (Homo sapiens, UniProt O60674); assay: JH1 biochemical assay for JAK2 (ADP-Glo kinase assay, recombinant JH1 catalytic domain, JAK3-974 peptide, 15 μM ATP)
T3 construct: recombinantly generated catalytic kinase (also known as JH1) domain of human JAK1, JAK2, JAK3 and TYK2
Outline: as §1

[4] = biological target: T4, human JAK3 kinase domain (JH1) (Homo sapiens, UniProt P52333); assay: JH1 biochemical assay for JAK3 (ADP-Glo kinase assay, recombinant JH1 catalytic domain, JAK3-974 peptide, 4 μM ATP)
T4 construct: recombinantly generated catalytic kinase (also known as JH1) domain of human JAK1, JAK2, JAK3 and TYK2
Outline: as §1

T4 sequence (P52333 822-1111 limits assumed): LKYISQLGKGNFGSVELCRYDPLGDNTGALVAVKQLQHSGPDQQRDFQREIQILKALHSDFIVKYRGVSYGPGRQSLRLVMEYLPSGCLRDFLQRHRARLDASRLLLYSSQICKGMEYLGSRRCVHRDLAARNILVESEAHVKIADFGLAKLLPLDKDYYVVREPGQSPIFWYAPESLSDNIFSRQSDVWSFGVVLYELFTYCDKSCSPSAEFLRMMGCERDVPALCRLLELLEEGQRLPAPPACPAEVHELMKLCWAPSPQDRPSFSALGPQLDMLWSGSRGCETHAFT
T2 sequence (P23458 875-1153 limits assumed): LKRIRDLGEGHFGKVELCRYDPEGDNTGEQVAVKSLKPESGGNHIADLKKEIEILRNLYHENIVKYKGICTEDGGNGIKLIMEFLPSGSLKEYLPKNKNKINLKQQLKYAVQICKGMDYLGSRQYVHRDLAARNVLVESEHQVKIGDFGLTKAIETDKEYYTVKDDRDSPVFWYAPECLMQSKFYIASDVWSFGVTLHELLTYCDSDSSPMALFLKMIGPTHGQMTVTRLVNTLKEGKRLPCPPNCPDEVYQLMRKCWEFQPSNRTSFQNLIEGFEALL
T3 sequence (O60674 849-1124 limits assumed): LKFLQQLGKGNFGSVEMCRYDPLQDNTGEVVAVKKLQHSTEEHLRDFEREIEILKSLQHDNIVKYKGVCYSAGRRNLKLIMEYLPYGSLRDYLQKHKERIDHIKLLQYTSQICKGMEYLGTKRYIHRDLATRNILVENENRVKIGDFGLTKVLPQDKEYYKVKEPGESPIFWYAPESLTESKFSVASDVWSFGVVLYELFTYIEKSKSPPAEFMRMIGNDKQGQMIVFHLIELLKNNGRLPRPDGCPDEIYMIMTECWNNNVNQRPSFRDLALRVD

IC50 ([1]; JH1 kinase domain, ADP-Glo) | IC50 ([2]; JH1 kinase domain, ADP-Glo) | IC50 ([3]; JH1 kinase domain, ADP-Glo) | IC50 ([4]; JH1 kinase domain, ADP-Glo) | IC50 ([1]; TYK2 JH1, ADP-Glo) | IC50 ([2]; JAK1 JH1, ADP-Glo) | IC50 ([3]; JAK2 JH1, ADP-Glo) | IC50 ([4]; JAK3 JH1, ADP-Glo) | Structure (SMILES)
20 to 50 nM | 100 to 1000 nM | 1000 to 5000 nM | 1000 to 5000 nM |  |  |  |  | C[C@@H]1CN(c2ccnn3cc(-c4cncc(OC(F)F)c4)cc23)C(=O)[C@]1(C#N)C1CC1 [Example 177, (3R,4S)-3-cyclopropyl-1-(6-(5-(difluoromethoxy)pyridin-3-yl)pyrrolo[1,2-b]pyridazin-4-yl)-4-methyl-2-oxopyrrolidine-3-carbonitrile]
 |  |  |  | > 100 nM | > 10000 nM | > 10000 nM | > 10000 nM | C[C@@H]1CN(c2nn(-c3cccc(=O)n3C)c3cnccc23)C(=O)[C@]1(C#N)C1CC1 [Example 279, (3R,4S)-3-cyclopropyl-4-methyl-1-(1-(1-methyl-6-oxo-1,6-dihydropyridin-2-yl)-1H-pyrazolo[3,4-c]pyridin-3-yl)-2-oxopyrrolidine-3-carbonitrile]
20 to 50 nM | > 10000 nM | > 10000 nM | 1000 to 5000 nM |  |  |  |  | C[C@@H]1CN(c2ccnn3cc(-c4nc(C#N)cs4)cc23)C(=O)[C@]1(C#N)C1CC1 [Example 114, 2-(4-((3R,4S)-3-cyano-3-cyclopropyl-4-methyl-2-oxopyrrolidin-1-yl)pyrrolo[1,2-b]pyridazin-6-yl)thiazole-4-carbonitrile trifluoroacetate]
> 100 nM | > 10000 nM | > 10000 nM | > 10000 nM |  |  |  |  | Cn1cc(-c2cc3c(N4CC[C@@](C#N)(C5COC5)C4=O)ccnn3c2)cn1 (single isomer, unassigned) [Example 45]
20 to 50 nM | 1000 to 5000 nM | 1000 to 5000 nM | 1000 to 5000 nM |  |  |  |  | Cc1cc(-c2cc3c(N4C[C@@H](C)[C@@](C#N)(C5CC5)C4=O)ccnn3c2)ncc1C#N [Example 144, 6-(4-((3R,4S)-3-cyano-3-cyclopropyl-4-methyl-2-oxopyrrolidin-1-yl)pyrrolo[1,2-b]pyridazin-6-yl)-4-methylnicotinonitrile trifluoroacetate]
20 to 50 nM | 100 to 1000 nM | 1000 to 5000 nM | 100 to 1000 nM |  |  |  |  | Cc1nn(C)c(C)c1-c1cn2nccc2c(N2C[C@@H](C)[C@@](C#N)(C3CC3)C2=O)n1 [Example 200, (3R,4S)-3-cyclopropyl-4-methyl-2-oxo-1-(6-(1,3,5-trimethyl-1H-pyrazol-4-yl)pyrazolo[1,5-a]pyrazin-4-yl)pyrrolidine-3-carbonitrile]
50 to 100 nM | 1000 to 5000 nM | > 10000 nM | 1000 to 5000 nM |  |  |  |  | C[C@@H]1CN(c2nc(-c3ncccc3F)cn3nccc23)C(=O)[C@]1(C#N)C1CC1 [Example 212, (3R,4S)-3-cyclopropyl-1-(6-(3-fluoropyridin-2-yl)pyrazolo[1,5-a]pyrazin-4-yl)-4-methyl-2-oxopyrrolidine-3-carbonitrile]
 |  |  |  | > 100 nM | 5000 to 10000 nM | > 10000 nM | 5000 to 10000 nM | C[C@@H]1CN(c2ccnc3cc(-c4cnn(C)c4)nn23)C(=O)[C@]1(C#N)C1CC1 [Example 273, (3R,4S)-3-cyclopropyl-4-methyl-1-(2-(1-methyl-1H-pyrazol-4-yl)pyrazolo[1,5-a]pyrimidin-7-yl)-2-oxopyrrolidine-3-carbonitrile]
20 to 50 nM | 100 to 1000 nM | 1000 to 5000 nM | 1000 to 5000 nM |  |  |  |  | C[C@@H]1CN(c2ccnn3cc(-c4cnc(N(C)C)nc4)cc23)C(=O)[C@]1(C#N)C1CC1 [Example 91, (3R,4S)-3-cyclopropyl-1-(6-(2-(dimethylamino)pyrimidin-5-yl)pyrrolo[1,2-b]pyridazin-4-yl)-4-methyl-2-oxopyrrolidine-3-carbonitrile]
 |  |  |  | > 100 nM | 1000 to 5000 nM | > 10000 nM | 1000 to 5000 nM | C[C@@H]1CN(c2nc(-c3ccn(C)n3)cn3nccc23)C(=O)[C@]1(C#N)C1CC1 [Example 229, (3R,4S)-3-cyclopropyl-4-methyl-1-(6-(1-methyl-1H-pyrazol-3-yl)pyrazolo[1,5-a]pyrazin-4-yl)-2-oxopyrrolidine-3-carbonitrile trifluoroacetate]
